Key:
[1] = molecular target: PKCθ (Homo sapiens, UniProt Q04759); experiment: PKCθ Scintiplate Assay; format: biochemical; settings: average value when one or more samples were tested
Description: This assay detects the phosphorylation of a biotinylated substrate by kinase utilizing radiolabeled ATP (ATP γ P33). The enzyme is either recombinant full length PKCθ (Panvera, P2996) or the purified recombinant active kinase domain of full length PKCθ (amino acids 362-706). The substrate in this assay is a biotinylated peptide with a sequence of biotin-[…]-CONH2. The assay buffer is composed of 100 mM Hepes, pH7.5, 2 mM MgCl2, 20 mM β-glycerophosphate and 0.008% TritonX 100. A reaction mixture of ATP, ATP γ P33 (PerkinElmer), DTT, lipid activator, and the enzyme is prepared in the assay buffer and added to a 96 well polypropylene plate. The compound (diluted in DMSO in a separate 96-well polypropylene plate) is added to the reaction mixture and incubated at room temperature. Following the incubation, the peptide substrate is added to the reaction mixture to initiate the enzymatic reaction. The reaction is terminated with the addition of a stop solution (10 mM EDTA, 0.2% TritonX100, and 100 mM NaHPO4) and transferred from the assay plate to a washed streptavidin-coated 96 well scintiplate (PerkinElmer). The scintiplate is incubated at room temperature, washed in PBS with 0.1% TritonX 100, and counted in the 1450 Microbeta Trilux (Wallac, Version 2.60). Counts are recorded for each well as corrected counts per minute (CCPM). The counts are considered corrected because they are adjusted according to a P33 normalization protocol, which corrects for efficiency and background differences between the instrument detectors (software version 4.40.01).

[2] = molecular target: T1, human PKCθ full length enzyme (Homo sapiens, UniProt Q04759); experiment: PKCθ IMAP Assay; format: biochemical; settings: average value when one or more samples were tested; ATP 6 uM, PKCθ 1 nM
T1 construct: human PKCθ full length enzyme (Panvera Catalog No. P2996); purchased Panvera P2996
How it was run: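 Full-length human PKCθ (1 nM final) with 6 uM ATP and 100 nM 5FAM-labelled peptide, 5% DMSO, 3.0 mM DTT in reaction buffer. 25 min at room temperature; IMAP bead binding 20 min, fluorescence polarization read. Compounds 2:1 serially diluted; no-ATP and no-enzyme wells as controls.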

T1 sequence (Q04759 whole entry): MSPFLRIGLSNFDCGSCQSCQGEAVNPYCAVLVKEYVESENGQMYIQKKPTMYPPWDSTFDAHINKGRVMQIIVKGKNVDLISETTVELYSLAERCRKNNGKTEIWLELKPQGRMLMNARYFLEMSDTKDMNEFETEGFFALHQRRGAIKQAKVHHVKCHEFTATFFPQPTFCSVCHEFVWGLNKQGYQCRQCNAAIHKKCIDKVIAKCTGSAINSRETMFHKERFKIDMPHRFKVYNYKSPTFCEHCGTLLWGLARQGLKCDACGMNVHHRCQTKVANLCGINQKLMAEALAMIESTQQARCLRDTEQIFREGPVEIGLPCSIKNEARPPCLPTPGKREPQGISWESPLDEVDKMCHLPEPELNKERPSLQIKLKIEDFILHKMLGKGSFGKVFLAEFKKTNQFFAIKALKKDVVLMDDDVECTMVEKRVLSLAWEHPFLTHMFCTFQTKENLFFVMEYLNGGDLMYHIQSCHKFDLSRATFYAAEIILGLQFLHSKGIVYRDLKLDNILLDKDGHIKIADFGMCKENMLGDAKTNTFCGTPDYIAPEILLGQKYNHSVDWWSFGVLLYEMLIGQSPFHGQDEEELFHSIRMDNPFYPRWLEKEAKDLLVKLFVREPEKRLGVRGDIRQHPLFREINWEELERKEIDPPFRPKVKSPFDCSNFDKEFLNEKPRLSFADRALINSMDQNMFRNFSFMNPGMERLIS
PKCθ, sequence (Q04759 362-706 limits assumed): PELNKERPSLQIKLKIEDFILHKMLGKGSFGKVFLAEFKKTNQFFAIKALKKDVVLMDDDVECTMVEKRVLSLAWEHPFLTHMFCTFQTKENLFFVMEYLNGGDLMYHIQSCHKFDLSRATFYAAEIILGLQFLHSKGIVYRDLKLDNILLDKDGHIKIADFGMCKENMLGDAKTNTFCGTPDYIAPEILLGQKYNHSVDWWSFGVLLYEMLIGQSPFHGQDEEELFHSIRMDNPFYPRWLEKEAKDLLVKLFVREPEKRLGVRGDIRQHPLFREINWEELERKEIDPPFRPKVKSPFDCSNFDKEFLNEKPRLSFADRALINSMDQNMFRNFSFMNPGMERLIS

Row | Compound | IC50 [1] [nM] | melting point [°C] | IC50 [2] [nM]
1 | N#Cc1cnc2sc(-c3ccccc3)cc2c1Nc1cccc2cc[nH]c12 [Compound 109, 4-(1H-indol-7-ylamino)-2-phenylthieno[2,3-b]pyridine-5-carbonitrile] | > 150000 | > 245 | –
2 | N#Cc1cnc2sc(-c3ccccc3)cc2c1Nc1cccc2[nH]ccc12 [Compound 115, 4-(1H-indol-4-ylamino)-2-phenylthieno[2,3-b] pyridine-5-carbonitrile] | 120 | > 245 | –
3 | N#Cc1cnc2sc(-c3ccccc3)cc2c1NCCc1c[nH]cn1 [Compound 127, 4-{[2-(1H-imidazol-4-yl)ethyl]amino}-2-phenylthieno[2,3-b]pyridine-5-carbonitrile] | 3000 | > 245 | –
4 | N#Cc1cnc2sc(-c3ccccc3)cc2c1-c1ccc2[nH]ccc2c1 [Compound 131, 4-(1H-indol-5-yl)-2-phenylthieno[2,3-b]pyridine-5-carbonitrile] | > 300000 | > 245 | –
5 | N#Cc1cnc2sc(-c3cccc(CN4CCN(CCO)CC4)c3)cc2c1Nc1ccc2[nH]ccc2c1 [Compound 148, 2-(3-{[4-(2-hydroxyethyl)piperazin-1-yl]methyl}phenyl)-4-(1H-indol-5-ylamino)thieno[2,3-b]pyridine-5-carbonitrile] | 60 | – | 73
6 | N#Cc1cnc2sc(-c3cccc(CNCCO)c3)cc2c1Nc1ccc2[nH]ccc2c1 [Compound 149, 2-(3-{[(2-hydroxyethyl)amino]methyl}phenyl)-4-(1H-indol-5-ylamino)thieno[2,3-b]pyridine-5-carbonitrile] | 13 | – | 30
7 | N#Cc1cnc2sc(-c3cccc(CN4CCN(CCN5CCOCC5)CC4)c3)cc2c1Nc1ccc2[nH]ccc2c1 [Compound 150, 4-(1H-indol-5-ylamino)-2-(3-{[4-(2-morpholin-4-ylethyl)piperazin-1-yl]methyl}phenyl)thieno[2,3-b]pyridine-5-carbonitrile] | 41 | – | 160
8 | N#Cc1cnc2sc(-c3cccc(CN(CCO)CCO)c3)cc2c1Nc1ccc2[nH]ccc2c1 [Compound 151, 2-(3-{[bis(2-hydroxyethyl)amino]methyl}phenyl)-4-(1H-indol-5-ylamino)thieno[2,3-b]pyridine-5-carbonitrile] | 88 | – | 77
9 | N#Cc1cnc2sc(-c3ccccc3CN3CCC(O)CC3)cc2c1Nc1ccc2[nH]ccc2c1 [Compound 186, 2-{2-[(4-hydroxypiperidin-1-yl)methyl]phenyl}-4-(1H-indol-5-ylamino)thieno [2,3-b]pyridine-5-carbonitrile] | 290 | – | 1600
10 | Cc1c(Nc2c(C#N)cnc3sc(-c4cccc(CN(C)C)c4)cc23)ccc2[nH]ccc12 [Compound 187, 2-{3-[(dimethylamino)methyl]phenyl}-4-[(4-methyl-1H-indol-5-yl)amino]thieno[2,3-b]pyridine-5-carbonitrile] | 4.5 | – | 8
11 | N#Cc1cnc2sc(C#Cc3ccccn3)cc2c1Nc1ccc2[nH]ccc2c1 [Compound 213, 4-(1H-indol-5-ylamino)-2-(pyridine-2-ylethynyl)thieno[2,3-b]pyridine-5-carbonitrile] | 75 | – | 290
12 | N#Cc1cnc2sc(C#Cc3cccnc3)cc2c1Nc1ccc2[nH]ccc2c1 [Compound 214, 4-(1H-indol-5-ylamino)-2-(pyridin-3-ylethynyl)thieno[2,3-b]pyridine-5-carbonitrile] | 16 | – | 190
13 | CN1CCN(Cc2cccc(C#Cc3cc4c(Nc5ccc6[nH]ccc6c5)c(C#N)cnc4s3)n2)CC1 [Compound 216, 4-(1H-indol-5-ylamino)-2-({6-[(4-methylpiperazin-1-yl)methyl]pyridin-2-yl}ethynyl)thieno[2,3-b]pyridine-5-carbonitrile] | 90 | – | 320
14 | N#Cc1cnc2sc(C#Cc3cccnc3)cc2c1Nc1cccc2[nH]ccc12 [Compound 218, 4-(1H-indol-4-ylamino)-2-(pyridin-3-ylethynyl)thieno[2,3-b]pyridine-5-carbonitrile] | 34 | – | 52
15 | CN1CCN(CCC#Cc2cc3c(Nc4cccc5[nH]ccc45)c(C#N)cnc3s2)CC1 [Compound 222, 4-(1H-indol-4-ylamino)-2-[4-(4-methylpiperazin-1-yl)but-1-yn-1-yl]thieno[2,3-b]pyridine-5-carbonitrile] | 170 | – | 150
16 | N#Cc1cnc2sc(C#Cc3ccncc3)cc2c1Nc1ccc2[nH]ccc2c1 [Compound 226, 4-(1H-indol-5-ylamino)-2-(pyridin-4-ylethynyl)thieno[2,3-b]pyridine-5-carbonitrile] | 76 | – | 570
17 | N#Cc1cnc2sc(C#Cc3cn[nH]c3)cc2c1Nc1ccc2[nH]ccc2c1 [Compound 227, 4-(1H-indol-5-ylamino)-2-(1H-pyrazol-4-ylethynyl)thieno[2,3-b]pyridine-5-carbonitrile] | 150 | – | 290

The next lines start with the values.

Row | IC50 [1] [nM] | melting point [°C] | IC50 [2] [nM] | Compound
18 | 51 | > 260 | – | N#Cc1cnc2sc(-c3ccc(C=O)cc3)cc2c1Nc1ccc2[nH]ccc2c1 [Compound 103, 2-(4-formylphenyl)-4-(1H-indol-5-ylamino)thieno[2,3-b]pyridine-5-carbonitrile]
19 | 110 | – | 180 | CN(C)Cc1ccc(-c2cc3c(Nc4ccc5[nH]ccc5c4)c(C#N)cnc3s2)nc1 [Compound 204, 2-{5-[(dimethylamino)methyl]pyridin-2-yl}-4-(1H-indol-5-ylamino)thieno[2,3-b] pyridine-5-carbonitrile]
20 | 50 | – | 100 | CN(C)Cc1nc(-c2cc3c(Nc4ccc5[nH]ccc5c4)c(C#N)cnc3s2)cs1 [Compound 208, 2-{2-[(dimethylamino)methyl]-1,3-thiazol-4-yl}-4-(1H-indol-5-ylamino)thieno[2,3-b]pyridine-5-carbonitrile]
21 | 170 | – | 150 | CN(C)C(=O)c1cccc(-c2cc3c(Nc4ccc5[nH]ccc5c4)c(C#N)cnc3s2)n1 [Compound 209, 6-[5-cyano-4-(1H-indol-5-ylamino)thieno[2,3-b]pyridin-2-yl]-N,N-dimethylpyridine-2-carboxamide]
22 | 34 | – | 82 | CN(C)Cc1ccc(-c2cc3c(Nc4ccc5[nH]ccc5c4)c(C#N)cnc3s2)s1 [Compound 211, 2-{5-[(dimethylamino)methyl]-2-thienyl}-4-(1H-indol-5-ylamino)thieno[2,3-b]pyridine-5-carbonitrile]
23 | 59 | – | 69 | CN(C)Cc1cccc(C#Cc2cc3c(Nc4ccc5[nH]ccc5c4)c(C#N)cnc3s2)n1 [Compound 217, 2-({6-[(dimethylamino)methyl]pyridin-2-yl}ethynyl)-4-(1H-indol-5-ylamino)thieno[2,3-b]pyridine-5-carbonitrile]
24 | 88 | – | 1400 | CN(C)CC#Cc1cc2c(Nc3ccc4[nH]ccc4c3)c(C#N)cnc2s1 [Compound 223, 2-[3-(dimethylamino)prop-1-yn-1-yl]-4-(1H-indol-5-ylamino)thieno[2,3-b]pyridine-5-carbonitrile]
25 | 220 | – | 440 | CCN(CC)CC#Cc1cc2c(Nc3ccc4[nH]ccc4c3)c(C#N)cnc2s1 [Compound 225, 2-[3-(diethylamino)prop-1-yn-1-yl]-4-(1H-indol-5-ylamino)thieno[2,3-b]pyridine-5-carbonitrile]

Reference: patent publication US20070082880A1 (priority 2005, published 2007)
